Series [1] concerns Leishmania amazonensis promastigote forms. Briefly: Leishmanicidal MTT assay on promastigote forms. In kind it is cell-based. To be noted: for IC50: Leishmania amazonensis, read-out: L. amazonensis IC50. In general terms: Tetrazolium dyes change colour on reduction, which living cells bring about.
Series [2] can be described thus: in vitro. The note with it: mouse.
Series [3] in a line: Macrophages in vitro cytotoxic assay (MTT). To be noted: mouse, J774A.1 macrophage cells.
[4] abbreviates: promastigote forms, 48 h treatment, MTT.

The values below come from PMC6271856, “Leishmanicidal Evaluation of Tetrahydroprotoberberine and Spirocyclic Erythrina-Alkaloids” (Molecules, 2014).

≈ marks a conversion by molar mass, not a printed value. Read-outs that look alike come from different tables or passages of the source. Where only a bound is given, the exact number is not on record here.

The IC50 is the midpoint of a concentration-inhibition curve. Regarding `COc1cc2c(cc1OC)C13CC(OC)C(=O)C=C1CCN3CC2` (stereo not drawn) [Compound 9, Erythratidinone], the IC50 in series [1] (48 h) is more than 1000 mg/L. Besides, in series [2], the CC50 is more than 1000 mg/L.
On to `COc1cc2c(cc1OC)CN1CCc3ccc(OC)c(O)c3[C@@H]1C2` [Compound 2], for which, in series [1] (setting [4]), the half-maximal inhibitory concentration (IC50) was more than 1000 mg/L. The same molecule came in with a CC50 at 48 h in series [3] of 96.6 mg/L (≈ 283 µM).
Take `C[C@@H]1[C@H](O)[C@@H](C)/C=C/C=C/C=C/C=C/C=C/C=C/C=C/[C@H](O[C@@H]2O[C@H](C)[C@@H](O)[C@H](N)[C@@H]2O)C[C@@H]2O[C@](O)(C[C@@H](O)C[C@@H](O)[C@H](O)CC[C@@H](O)C[C@@H](O)CC(=O)O[C@H]1C)C[C@H](O)[C@H]2C(=O)O` [Amphotericin B, reference compound]: in series [1] (setting [4]), the IC50 stood at 0.2 mg/L (≈ 0.216 µM).
Take `CO[C@H]1C=CC2=CCN3CCc4cc5c(cc4[C@]23C1)OCO5` [Compound 3, erythraline]: in series [1], the “SI (Selectivity Index = CC50 drug/IC50 drug)” value was determined as 1.06. The IC50 in series [1] (48 h) came to 65.3 mg/L (≈ 220 µM). Besides, the CC50 in series [2] was 69.3 mg/L (≈ 233 µM).
As for `COC1C=CC2=CCN3CC(O)c4cc5c(cc4C23C1)OCO5` (stereo not drawn) [Compound 7, Erythrinine], in series [1], the “SI (Selectivity Index = CC50 drug/IC50 drug)” value turned out to be 1.52. Moreover, the IC50 in series [1] (48 h) was 39.5 mg/L (≈ 126 µM). In series [2], this molecule yielded a CC50 of 60 mg/L (≈ 191 µM).
For `COc1ccc2c(c1O)[C@@H]1Cc3cc4c(cc3CN1CC2)OCO4` [Compound 1], the “SI (Selectivity Index = CC50 drug/IC50 drug)” value in series [1] (CC50 J774 macrophages / IC50 L. amazonensis promastigotes) is reported as 284.55. Also, the IC50 in series [1] (setting [4]) was found to be 0.18 mg/L (≈ 0.553 µM). The molecule further registered a CC50 at 48 h in series [3] of 51.2 mg/L (≈ 157 µM).
For `COc1cc2c(cc1O)[C@]13C[C@@H](OC)C=CC1=CCN3CC2` [Compound 8, Erysovine], the IC50 in series [1] (48 h) was more than 1000 mg/L. The same molecule displayed a CC50 in series [2] of more than 1000 mg/L.
On to `COC1C=CC2=CC(=O)N3CCc4cc5c(cc4C23C1)OCO5` (stereo not drawn) [Compound 4, 8-oxoerythraline], for which, in series [1] (setting [4]), the concentration for half-maximal inhibition (IC50) is more than 1000 mg/L. The same molecule registered a CC50 in series [2] of more than 1000 mg/L.
For `COC1C=CC2=CC(=O)N3C=Cc4cc5c(cc4C23C1)OCO5` (stereo not drawn) [Compound 6, Crystamidine], the “SI (Selectivity Index = CC50 drug/IC50 drug)” value in series [1] came to 0.82. In addition, the IC50 in series [1] (setting [4]) worked out at 71.5 mg/L (≈ 231 µM). Besides, the CC50 in series [2] was found to be 59 mg/L (≈ 191 µM).
